Reference: PubChem BioAssay AID1918937 (Molecular Pharmacology Branch, DTP, NCI, 2023)

Test system: 521955-158-R2-J5-PDC complex spheroid viability
Experiment: Anticancer human tumor 521955-158-R2-J5-PDC patient-derived pancreatic carcinoma cell line growth inhibition
Details: for IC50: curve of first compound; for viability, T/C: stronger effect = lower value
Summary of the method: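 Multicellular complex spheroids of tumor cells with human endothelial cells (HUVEC) and mesenchymal stem cells; the LSD1 inhibitor iadademstat was combined with standard-of-care or investigational agents. Top concentration at or near clinical Cmax, half-log dilutions; final DMSO ≤0.25%.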

[1] = second compound 0.1 µM, first compound 0.000316 µM
[2] = second compound 0.1 µM, first compound 0.001 µM
[3] = second compound 0.1 µM, first compound 0.00316 µM
[4] = second compound 0.1 µM, first compound 0.01 µM
[5] = second compound 0.1 µM, first compound 0.0316 µM
[6] = second compound 0.1 µM, first compound 0.1 µM
[7] = second compound 0.316 µM, first compound 0.000316 µM
[8] = second compound 0.316 µM, first compound 0.001 µM
[9] = second compound 0.316 µM, first compound 0.00316 µM
[10] = second compound 0.316 µM, first compound 0.01 µM
[11] = second compound 0.316 µM, first compound 0.0316 µM
[12] = second compound 0.316 µM, first compound 0.1 µM
[13] = second compound 1 µM, first compound 0.000316 µM
[14] = second compound 1 µM, first compound 0.001 µM
[15] = second compound 1 µM, first compound 0.00316 µM
[16] = second compound 1 µM, first compound 0.01 µM
[17] = second compound 1 µM, first compound 0.0316 µM
[18] = second compound 1 µM, first compound 0.1 µM
[19] = second compound 3.16 µM, first compound 0.000316 µM
[20] = second compound 3.16 µM, first compound 0.001 µM
[21] = second compound 3.16 µM, first compound 0.00316 µM
[22] = second compound 3.16 µM, first compound 0.01 µM
[23] = second compound 3.16 µM, first compound 0.0316 µM
[24] = second compound 3.16 µM, first compound 0.1 µM
[25] = second compound 10 µM, first compound 0.000316 µM
[26] = second compound 10 µM, first compound 0.001 µM
[27] = second compound 10 µM, first compound 0.00316 µM
[28] = second compound 10 µM, first compound 0.01 µM
[29] = second compound 10 µM, first compound 0.0316 µM
[30] = second compound 10 µM, first compound 0.1 µM
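Note: spheroids exposed to agents for seven days.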
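Throughout, for viability, T/C: percent of DMSO vehicle control luminescence viability.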

Compound `CC(C)CC(NC(=O)C(Cc1ccccc1)NC(=O)c1cnccn1)B(O)O` (stereo not given) + NC1CCC(NC2CC2c2ccccc2)CC1 has an IC50 (second compound 0.1 µM) of 0.491 nM, an IC50 (second compound 0.316 µM) of 0.468 nM and an IC50 (second compound 1 µM) of 0.509 nM. For the same compound, the IC50 (second compound 3.16 µM) was 0.525 nM, the IC50 (second compound 10 µM) was 0.512 nM and the viability, T/C [1] was 80.7%. It also gave a viability, T/C [2] of 0.24%, a viability, T/C [3] of 0.24% and a viability, T/C [4] of 0.06%. The viability, T/C [5] was 0.05%, the viability, T/C [6] was 0.94% and the viability, T/C [7] was 75.7%. It also gave a viability, T/C [8] of 0.23%, a viability, T/C [9] of 0.12% and a viability, T/C [10] of 0.04%. For the same compound, the viability, T/C [11] was 0.07%, the viability, T/C [12] was 0.21% and the viability, T/C [13] was 84.9%. For the same compound, the viability, T/C [14] was 0.24%, the viability, T/C [15] was 0.06% and the viability, T/C [16] was 0.04%. It also gave a viability, T/C [17] of 0.09%, a viability, T/C [18] of 0.2% and a viability, T/C [19] of 88.1%. It also gave a viability, T/C [20] of 0.24%, a viability, T/C [21] of 0.12% and a viability, T/C [22] of 0.04%. It also gave a viability, T/C [23] of 0.06%, a viability, T/C [24] of 5.74% and a viability, T/C [25] of 82.9%. For the same compound, the viability, T/C [26] was 4.43%, the viability, T/C [27] was 0.22% and the viability, T/C [28] was 0.39%. For the same compound, the viability, T/C [29] was 0.18% and the viability, T/C [30] was 0.72%.
Work on `CC(C)CC(NC(=O)CNC(=O)c1cc(Cl)ccc1Cl)B1OC(=O)CC(CC(=O)O)(C(=O)O)O1` (stereo not given) + NC1CCC(NC2CC2c2ccccc2)CC1 yielded an IC50 (second compound 0.1 µM) of 5.31 nM, an IC50 (second compound 0.316 µM) of 5.02 nM and an IC50 (second compound 1 µM) of 4.9 nM. For the same compound, the IC50 (second compound 3.16 µM) was 5.38 nM, the IC50 (second compound 10 µM) was 4.85 nM and the viability, T/C [1] was 105%. The viability, T/C [2] was 111%, the viability, T/C [3] was 85.9% and the viability, T/C [4] was 6.15%. It also gave a viability, T/C [5] of 0.37%, a viability, T/C [6] of 0.25% and a viability, T/C [7] of 99.8%. The viability, T/C [8] was 106%, the viability, T/C [9] was 80.4% and the viability, T/C [10] was 4.86%. The viability, T/C [11] was 0.4%, the viability, T/C [12] was 0.15% and the viability, T/C [13] was 104%. For the same compound, the viability, T/C [14] was 99.4%, the viability, T/C [15] was 78.2% and the viability, T/C [16] was 4.23%. For the same compound, the viability, T/C [17] was 0.34%, the viability, T/C [18] was 0.23% and the viability, T/C [19] was 108%. It also gave a viability, T/C [20] of 111%, a viability, T/C [21] of 88% and a viability, T/C [22] of 5.7%. It also gave a viability, T/C [23] of 0.29%, a viability, T/C [24] of 0.28% and a viability, T/C [25] of 103%. For the same compound, the viability, T/C [26] was 96.4%, the viability, T/C [27] was 74.5% and the viability, T/C [28] was 8.66%. For the same compound, the viability, T/C [29] was 0.32% and the viability, T/C [30] was 0.38%.
`Nc1ccccc1NC(=O)c1ccc(CNC(=O)OCc2cccnc2)cc1` + NC1CCC(NC2CC2c2ccccc2)CC1 was tested, and the IC50 (second compound 0.1 µM) was 321 nM, the IC50 (second compound 0.316 µM) was 389 nM and the IC50 (second compound 1 µM) was 342 nM. It also gave an IC50 (second compound 3.16 µM) of 293 nM, an IC50 (second compound 10 µM) of 334 nM and a viability, T/C (second compound 0.1 µM, first compound 0.00949 µM) of 104%. The viability, T/C (second compound 0.1 µM, first compound 0.03 µM) was 107%, the viability, T/C (second compound 0.1 µM, first compound 0.0949 µM) was 86.8% and the viability, T/C (second compound 0.1 µM, first compound 0.3 µM) was 55.1%. For the same compound, the viability, T/C (second compound 0.1 µM, first compound 0.949 µM) was 9.73%, the viability, T/C (second compound 0.1 µM, first compound 3 µM) was 0.31% and the viability, T/C (second compound 0.316 µM, first compound 0.00949 µM) was 103%. The viability, T/C (second compound 0.316 µM, first compound 0.03 µM) was 99%, the viability, T/C (second compound 0.316 µM, first compound 0.0949 µM) was 88.7% and the viability, T/C (second compound 0.316 µM, first compound 0.3 µM) was 62.8%. It also gave a viability, T/C (second compound 0.316 µM, first compound 0.949 µM) of 11.8%, a viability, T/C (second compound 0.316 µM, first compound 3 µM) of 0.34% and a viability, T/C (second compound 1 µM, first compound 0.00949 µM) of 98.7%. For the same compound, the viability, T/C (second compound 1 µM, first compound 0.03 µM) was 101%, the viability, T/C (second compound 1 µM, first compound 0.0949 µM) was 84.4% and the viability, T/C (second compound 1 µM, first compound 0.3 µM) was 57%. For the same compound, the viability, T/C (second compound 1 µM, first compound 0.949 µM) was 12.4%, the viability, T/C (second compound 1 µM, first compound 3 µM) was 0.26% and the viability, T/C (second compound 3.16 µM, first compound 0.00949 µM) was 102%. It also gave a viability, T/C (second compound 3.16 µM, first compound 0.03 µM) of 101%, a viability, T/C (second compound 3.16 µM, first compound 0.0949 µM) of 80.4% and a viability, T/C (second compound 3.16 µM, first compound 0.3 µM) of 52.7%. For the same compound, the viability, T/C (second compound 3.16 µM, first compound 0.949 µM) was 10.7%, the viability, T/C (second compound 3.16 µM, first compound 3 µM) was 0.24% and the viability, T/C (second compound 10 µM, first compound 0.00949 µM) was 96.8%. It also gave a viability, T/C (second compound 10 µM, first compound 0.03 µM) of 98%, a viability, T/C (second compound 10 µM, first compound 0.0949 µM) of 78.2% and a viability, T/C (second compound 10 µM, first compound 0.3 µM) of 58.6%. It also gave a viability, T/C (second compound 10 µM, first compound 0.949 µM) of 10.2% and a viability, T/C (second compound 10 µM, first compound 3 µM) of 0.35%.
`O=C(c1cc(Cc2n[nH]c(=O)c3ccccc23)ccc1F)N1CCN(C(=O)C2CC2)CC1` + NC1CCC(NC2CC2c2ccccc2)CC1 was tested, and the IC50 (second compound 0.1 µM) was greater than 10000 nM, the IC50 (second compound 0.316 µM) was greater than 10000 nM and the IC50 (second compound 1 µM) was greater than 10000 nM. For the same compound, the IC50 (second compound 3.16 µM) was greater than 10000 nM, the IC50 (second compound 10 µM) was greater than 10000 nM and the viability, T/C [5] was 109%. It also gave a viability, T/C [6] of 107%, a viability, T/C (second compound 0.1 µM, first compound 0.316 µM) of 100% and a viability, T/C (second compound 0.1 µM, first compound 1 µM) of 98.6%. It also gave a viability, T/C (second compound 0.1 µM, first compound 3.16 µM) of 89.3%, a viability, T/C (second compound 0.1 µM, first compound 10 µM) of 56.6% and a viability, T/C [11] of 106%. For the same compound, the viability, T/C [12] was 108%, the viability, T/C (second compound 0.316 µM, first compound 0.316 µM) was 103% and the viability, T/C (second compound 0.316 µM, first compound 1 µM) was 102%. It also gave a viability, T/C (second compound 0.316 µM, first compound 3.16 µM) of 89%, a viability, T/C (second compound 0.316 µM, first compound 10 µM) of 57.8% and a viability, T/C [17] of 97.9%. It also gave a viability, T/C [18] of 99.6%, a viability, T/C (second compound 1 µM, first compound 0.316 µM) of 99.4% and a viability, T/C (second compound 1 µM, first compound 1 µM) of 94.8%. For the same compound, the viability, T/C (second compound 1 µM, first compound 3.16 µM) was 97.1%, the viability, T/C (second compound 1 µM, first compound 10 µM) was 54.9% and the viability, T/C [23] was 98.4%. It also gave a viability, T/C [24] of 101%, a viability, T/C (second compound 3.16 µM, first compound 0.316 µM) of 99.6% and a viability, T/C (second compound 3.16 µM, first compound 1 µM) of 102%. It also gave a viability, T/C (second compound 3.16 µM, first compound 3.16 µM) of 86.8%, a viability, T/C (second compound 3.16 µM, first compound 10 µM) of 59.5% and a viability, T/C [29] of 102%. It also gave a viability, T/C [30] of 105%, a viability, T/C (second compound 10 µM, first compound 0.316 µM) of 99% and a viability, T/C (second compound 10 µM, first compound 1 µM) of 95.3%. It also gave a viability, T/C (second compound 10 µM, first compound 3.16 µM) of 81.9% and a viability, T/C (second compound 10 µM, first compound 10 µM) of 55.9%.
